In the supplement of paper PMC10883282:

Experiments:
Experiment in all cases: relative viability vs DMSO control (72 h) (fraction); higher = more viable cells
[1] = tested on: SW872
In short: (§1)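 A 5 µM positive control and 0.1% DMSO vehicle ran alongside sarcoma cell lines seeded in 384-well plates to reach 80–90% confluence. Serially diluted compound, 2.5 µl from source plates of 10 mM to 0.0002 mM, was added after 24 h, and the plates were held 72 h at 37 °C, 5% CO2. Relative viability was worked out from ATPLite readings as percent growth averaged over up to triplicate wells. The values were rescaled so that 1 is full and 0 is none.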

[2] = tested on: KHOS-240S
In short: as §1

[3] = tested on: SK-LMS-1
In short: as §1

[4] = tested on: SW1353
In short: as §1

[5] = tested on: RD-ES
In short: as §1

[6] = tested on: HT1080
In short: as §1

[7] = tested on: RD
In short: as §1

[8] = tested on: SYO-1
In short: as §1

[9] = tested on: G401
In short: as §1

[10] = tested on: HS729
In short: as §1

[11] = tested on: SW684
In short: as §1

[12] = tested on: KHOS-NP
In short: as §1

O=S(=O)(c1cccc2cnccc12)N1CCCNCC1 [Fasudil]
relative viability
Conditions | 0.00051 µM | 0.00152 µM | 0.00457 µM | 0.01372 µM | 0.04115 µM | 0.1235 µM | 0.3704 µM | 1.111 µM | 3.333 µM | 10 µM
[1] | 0.959 | 0.979 | 0.993 | 0.964 | 0.958 | 0.9735 | 0.966 | 0.9852 | 1 | 0.929
[2] | 0.974 | 0.976 | 0.961 | 0.966 | 0.957 | 0.961 | 0.959 | 0.952 | 0.942 | 0.8862
[3] | 1.05 | 1.05 | 1.036 | 1.08 | 1.03 | 1.06 | 1.03 | 1.05 | 1.01 | 0.977
[4] | 1.01 | 1.048 | 1.03 | 1.03 | 1.0327 | 1 | 1.04 | 1.03 | 0.97 | 0.888
[5] | 0.957 | 0.9873 | 0.98 | 0.979 | 0.9688 | 0.98 | 1.009 | 1.005 | 1.01 | 1
[6] | 1.03 | 1.03 | 1.066 | 1.04 | 1.03 | 1.03 | 1.06 | 1.06 | 1.07 | 1.06
[7] | 0.969 | 0.985 | 0.952 | 0.978 | 0.963 | 0.956 | 0.961 | 0.999 | 1.05 | 1.06
[8] | 0.95 | 0.984 | 0.954 | 0.9485 | 0.963 | 0.954 | 0.983 | 0.97 | 0.968 | 0.902
[9] | 0.9413 | 0.92867 | 0.943 | 0.948 | 0.945 | 0.975 | 0.972 | 0.984 | 1.01 | 1
[10] | 0.949 | 0.964 | 1.01 | 0.949 | 0.953 | 0.926 | 0.974 | 0.957 | 0.925 | 0.855
[11] | 1.02 | 1.02 | 0.965 | 0.945 | 0.965 | 0.986 | 1.02 | 0.95 | 0.895 | 0.761
[12] | 1.03 | 1.04 | 1.029 | 1.02 | 1.01 | 1.03 | 1.02 | 1.05 | 1.01 | 1.03
